pIC50: −log10 of the molar value.
Tests used:
[1] = molecular target: His6-TEV-PDGFRβ (557-1016) (Homo sapiens (Human), UniProt P09619); assay: PDGFRβ HTRF Assay; format: biochemical; conditions: read-out: PDGFR HTRF IC50
Summary of the method: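 Human PDGFRβ (557-1016) pre-incubated with compound for 30 min at RT in pH 7.5 HEPES/MgCl2/EGTA/Brij-35/DTT buffer. Reaction started with ATP and TK-biotin peptide, run 3 h at RT, then quenched with EDTA-containing Eu-cryptate antibody/streptavidin-XL665. HTRF 665/620 nm ratio read after 60 min; percent inhibition relative to DMSO and 10 μM imatinib controls.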

[2] = molecular target: Tb-labeled inactive PDGFRβ (Homo sapiens (Human), UniProt P09619); assay: PDGFRβ LanthaScreen Assay; format: binding; conditions: read-out: PDGFR Lantha IC50
PDGFRβ = PDGFRβ (Rattus norvegicus (Rat), UniProt Q05030); assay: PDGFRβ Cellular Assay (PDGFRb P-Y751 HTRF in A10 cells stimulated with PDGF-BB); format: cell-based; conditions: read-out: PDGFR Cellular IC50
Summary of the method: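 Rat A10 cells, plated overnight, were treated with compound for 3 hours, then stimulated with PDGF-BB (working stock 100 ng/mL in 10% FBS medium). After lysis, PDGFRβ P-Y751 was detected by HTRF.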

Chain of PDGFRβ (Q05030 32-1097): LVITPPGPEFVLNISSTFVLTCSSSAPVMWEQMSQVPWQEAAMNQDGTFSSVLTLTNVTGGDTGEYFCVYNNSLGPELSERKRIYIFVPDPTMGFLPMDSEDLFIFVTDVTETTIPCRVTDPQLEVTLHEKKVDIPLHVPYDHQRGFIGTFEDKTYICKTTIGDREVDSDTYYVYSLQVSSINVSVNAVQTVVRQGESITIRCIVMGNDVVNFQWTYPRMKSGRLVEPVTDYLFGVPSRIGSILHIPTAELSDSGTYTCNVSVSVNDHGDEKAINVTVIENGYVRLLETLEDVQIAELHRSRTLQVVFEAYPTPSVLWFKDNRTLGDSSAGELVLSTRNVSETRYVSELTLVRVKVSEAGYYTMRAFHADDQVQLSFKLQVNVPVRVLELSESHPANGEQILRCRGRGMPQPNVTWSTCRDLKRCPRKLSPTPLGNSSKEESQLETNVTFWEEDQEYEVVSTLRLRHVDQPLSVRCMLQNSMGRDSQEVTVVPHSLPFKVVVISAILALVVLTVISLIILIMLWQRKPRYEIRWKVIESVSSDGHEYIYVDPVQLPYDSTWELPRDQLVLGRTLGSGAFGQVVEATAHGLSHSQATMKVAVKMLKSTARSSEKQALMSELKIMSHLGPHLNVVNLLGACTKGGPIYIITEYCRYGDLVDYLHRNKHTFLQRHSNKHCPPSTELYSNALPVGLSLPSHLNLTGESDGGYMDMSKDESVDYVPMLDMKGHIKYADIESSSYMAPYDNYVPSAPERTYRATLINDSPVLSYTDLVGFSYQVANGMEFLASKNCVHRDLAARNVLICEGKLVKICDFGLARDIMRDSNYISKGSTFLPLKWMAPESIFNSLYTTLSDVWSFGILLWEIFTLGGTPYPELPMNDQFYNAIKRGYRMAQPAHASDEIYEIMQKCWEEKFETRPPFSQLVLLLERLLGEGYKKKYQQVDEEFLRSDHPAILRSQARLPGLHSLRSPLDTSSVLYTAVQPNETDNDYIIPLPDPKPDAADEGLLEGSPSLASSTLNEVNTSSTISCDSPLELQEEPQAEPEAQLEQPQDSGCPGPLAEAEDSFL
Chain of Tb-labeled inactive PDGFRβ (P09619 33-1106): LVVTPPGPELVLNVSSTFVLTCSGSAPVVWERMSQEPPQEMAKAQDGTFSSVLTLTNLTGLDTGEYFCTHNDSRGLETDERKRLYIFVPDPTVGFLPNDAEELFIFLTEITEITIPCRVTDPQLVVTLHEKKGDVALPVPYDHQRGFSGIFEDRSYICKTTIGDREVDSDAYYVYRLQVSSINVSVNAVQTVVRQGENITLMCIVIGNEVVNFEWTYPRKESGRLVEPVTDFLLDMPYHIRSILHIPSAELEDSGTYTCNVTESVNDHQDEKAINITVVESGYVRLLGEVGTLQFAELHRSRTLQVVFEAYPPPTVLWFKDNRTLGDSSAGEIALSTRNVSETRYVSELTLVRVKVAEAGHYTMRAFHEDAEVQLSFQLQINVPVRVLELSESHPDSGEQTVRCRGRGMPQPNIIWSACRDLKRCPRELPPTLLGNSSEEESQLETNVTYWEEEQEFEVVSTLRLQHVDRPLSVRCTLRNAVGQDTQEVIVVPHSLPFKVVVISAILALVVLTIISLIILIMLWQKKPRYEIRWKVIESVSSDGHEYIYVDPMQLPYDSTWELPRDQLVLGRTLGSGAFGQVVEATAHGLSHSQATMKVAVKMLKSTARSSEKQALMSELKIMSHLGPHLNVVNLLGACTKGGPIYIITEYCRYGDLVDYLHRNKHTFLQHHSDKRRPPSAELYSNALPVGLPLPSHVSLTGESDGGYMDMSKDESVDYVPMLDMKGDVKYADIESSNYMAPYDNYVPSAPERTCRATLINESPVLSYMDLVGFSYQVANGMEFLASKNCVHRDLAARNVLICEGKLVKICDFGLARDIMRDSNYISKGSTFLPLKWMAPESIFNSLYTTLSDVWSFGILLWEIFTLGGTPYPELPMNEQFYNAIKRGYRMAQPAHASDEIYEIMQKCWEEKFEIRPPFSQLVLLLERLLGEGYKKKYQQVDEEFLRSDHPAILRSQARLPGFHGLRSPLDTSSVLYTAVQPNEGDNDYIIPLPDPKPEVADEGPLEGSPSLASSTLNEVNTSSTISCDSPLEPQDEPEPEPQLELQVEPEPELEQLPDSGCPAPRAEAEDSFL
Chain of His6-TEV-PDGFRβ (557-1016) (P09619 557-1016): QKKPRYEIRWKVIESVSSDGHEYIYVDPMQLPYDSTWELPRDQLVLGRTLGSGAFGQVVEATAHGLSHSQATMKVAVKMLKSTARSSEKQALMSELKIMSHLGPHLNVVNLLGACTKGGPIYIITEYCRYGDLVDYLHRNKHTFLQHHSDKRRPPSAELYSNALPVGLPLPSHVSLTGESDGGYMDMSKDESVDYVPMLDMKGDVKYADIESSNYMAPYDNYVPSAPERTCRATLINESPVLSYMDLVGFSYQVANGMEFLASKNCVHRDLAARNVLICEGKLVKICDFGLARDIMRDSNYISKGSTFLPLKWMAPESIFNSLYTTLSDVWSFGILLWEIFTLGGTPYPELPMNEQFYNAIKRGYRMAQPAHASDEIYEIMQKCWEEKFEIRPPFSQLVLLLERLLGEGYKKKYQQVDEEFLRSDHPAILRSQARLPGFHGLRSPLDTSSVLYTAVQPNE

| Structure (SMILES) | pIC50 [1] | pIC50 [2] | pIC50 (PDGFRβ) |
| --- | --- | --- | --- |
| CC(=O)Nc1cncc(-c2cn3ncc(C(=O)Nc4cc(NC(=O)CN5CC(C)(C)C5)cnc4C)c3s2)c1 [Example 277, 2-(5-acetamidopyridin-3-yl)-N-(5-(2-(3,3-dimethylazetidin-1-yl)acetamido)-2-methylpyridin-3-yl)pyrazolo[5,1-b]thiazole-7-carboxamide] | 9.40 | 8.24 | 6.85 |
| Cc1ncc(NC(=O)CN2CC(C)(C)C2)cc1NC(=O)c1cnn2cc(-c3cnc4[nH]ncc4c3)sc12 [Example 288, N-(5-(2-(3,3-dimethylazetidin-1-yl)acetamido)-2-methylpyridin-3-yl)-2-(1H-pyrazolo[3,4-b]pyridin-5-yl)pyrazolo[5,1-b]thiazole-7-carboxamide] | 9.40 | 7.94 | 7.87 |
| COc1ncccc1-c1cn2ncc(C(=O)Nc3cc(NC(=O)CN4CCC5(CCOC5)C4)cnc3C)c2s1 (stereo not drawn) [Example 320, N-(5-(2-(2-oxa-7-azaspiro[4.4]nonan-7-yl)acetamido)-2-methylpyridin-3-yl)-2-(2-methoxypyridin-3-yl)pyrazolo[5,1-b]thiazole-7-carboxamide] | 9.70 | 8.85 | 8.80 |
| Cc1ncc(NC(=O)CN2CC(C)(C)C2)cc1NC(=O)c1cnn2cc(-c3cccc4c3cnn4C)sc12 [Example 286, N-(5-(2-(3,3-dimethylazetidin-1-yl)acetamido)-2-methylpyridin-3-yl)-2-(1-methyl-1H-indazol-4-yl)pyrazolo[5,1-b]thiazole-7-carboxamide] | 10.00 | 9.00 | 8.85 |
| Cc1ncc(NC(=O)CN2CC(C)(C)C2)cc1NC(=O)c1cnn2cc(-c3cnn(C4COC4)c3)sc12 [Example 264, N-(5-(2-(3,3-dimethylazetidin-1-yl)acetamido)-2-methylpyridin-3-yl)-2-(1-(oxetan-3-yl)-1H-pyrazol-4-yl)pyrazolo[5,1-b]thiazole-7-carboxamide] | 9.40 | 8.21 | 8.12 |
| Cc1ncc(NC(=O)CN2CC(C)(C)C2)cc1NC(=O)c1cnn2cc(-c3c[nH]c4ccccc34)sc12 [Example 287, N-(5-(2-(3,3-dimethylazetidin-1-yl)acetamido)-2-methylpyridin-3-yl)-2-(1H-indol-3-yl)pyrazolo[5,1-b]thiazole-7-carboxamide] | 10.00 | 9.10 | 8.74 |
| Cc1ncc(NC(=O)CN2CC(C)(C)C2)cc1NC(=O)c1cnn2cc(-c3ccc(CO)o3)sc12 [Example 292, N-(5-(2-(3,3-dimethylazetidin-1-yl)acetamido)-2-methylpyridin-3-yl)-2-(5-(hydroxymethyl)furan-2-yl)pyrazolo[5,1-b]thiazole-7-carboxamide] | 9.52 | 8.66 | 8.38 |
| Cc1ncc(NC(=O)CN(C)C2CCOCC2)cc1NC(=O)c1cnn2cc(-c3cnn(CC(N)=O)c3)sc12 [Example 300, 2-(1-(2-amino-2-oxoethyl)-1H-pyrazol-4-yl)-N-(2-methyl-5-(2-(methyl(tetrahydro-2H-pyran-4-yl)amino)acetamido)pyridin-3-yl)pyrazolo[5,1-b]thiazole-7-carboxamide] | 8.92 | 7.91 | 5.99 |
| Cc1ncc(NC(=O)C2CCCCN2C(C)C)cc1NC(=O)c1cnn2cc(-c3cccnc3O)sc12 (stereo not drawn) [Example 314, 2-(2-hydroxypyridin-3-yl)-N-(5-(1-isopropylpiperidine-2-carboxamido)-2-methylpyridin-3-yl)pyrazolo[5,1-b]thiazole-7-carboxamide] | 8.60 | 7.19 | 6.26 |
| Cc1ncc(NC(=O)CN2CC(C)(C)C2)cc1NC(=O)c1cnn2cc(-c3ccc(C4(O)COC4)cc3)sc12 [Example 272, N-(5-(2-(3,3-dimethylazetidin-1-yl)acetamido)-2-methylpyridin-3-yl)-2-(4-(3-hydroxyoxetan-3-yl)phenyl)pyrazolo[5,1-b]thiazole-7-carboxamide] | 9.70 | 8.85 | 8.25 |
| Cc1ncc(NC(=O)CN2CC(C)(C)C2)cc1NC(=O)c1cnn2cc(-c3cnn(CC(C)O)c3)sc12 (stereo not drawn) [Example 281, N-(5-(2-(3,3-dimethylazetidin-1-yl)acetamido)-2-methylpyridin-3-yl)-2-(1-(2-hydroxypropyl)-1H-pyrazol-4-yl)pyrazolo[5,1-b]thiazole-7-carboxamide] | 9.40 | 8.42 | 7.96 |
| Cc1ncc(NC(=O)CC(C)N2CCCCC2)cc1NC(=O)c1cnn2cc(-c3cnn(C)c3)sc12 (stereo not drawn) [Example 307, 2-(1-methyl-1H-pyrazol-4-yl)-N-(2-methyl-5-(3-(piperidin-1-yl)butanamido)pyridin-3-yl)pyrazolo[5,1-b]thiazole-7-carboxamide] | 8.01 | 6.68 | 7.14 |
| Cc1ncc(NC(=O)CN2CC(C)(C)C2)cc1NC(=O)c1cnn2cc(-c3cnn(C4CCNCC4)c3)sc12 [Example 293, N-(5-(2-(3,3-dimethylazetidin-1-yl)acetamido)-2-methylpyridin-3-yl)-2-(1-(piperidin-4-yl)-1H-pyrazol-4-yl)pyrazolo[5,1-b]thiazole-7-carboxamide] | 9.40 | 8.34 | 6.47 |
| Cc1ncc(NC(=O)CN2CC(C)(C)C2)cc1NC(=O)c1cnn2cc(-c3cnn(CC(N)=O)c3)sc12 [Example 267, 2-(1-(2-amino-2-oxoethyl)-1H-pyrazol-4-yl)-N-(5-(2-(3,3-dimethylazetidin-1-yl)acetamido)-2-methylpyridin-3-yl)pyrazolo[5,1-b]thiazole-7-carboxamide] | 9.05 | 7.86 | 6.15 |
| Cc1ncc(NC(=O)CN2CCCCC23COC3)cc1NC(=O)c1cnn2cc(-c3cnn(C)c3)sc12 [Example 25, N-(5-(2-(2-oxa-5-azaspiro[3.5]nonan-5-yl)acetamido)-2-methylpyridin-3-yl)-2-(1-methyl-1H-pyrazol-4-yl)pyrazolo[5,1-b]thiazole-7-carboxamide] | 9.15 | 8.18 | 7.56 |
| Cc1ncc(NC(=O)CN2CC(C)(C)C2)cc1NC(=O)c1cnn2cc(-c3cnn(C)c3)sc12 [Example 22, N-(5-(2-(3,3-dimethylazetidin-1-yl)acetamido)-2-methylpyridin-3-yl)-2-(1-methyl-1H-pyrazol-4-yl)pyrazolo[5,1-b]thiazole-7-carboxamide] | 9.15 | 8.07 | 8.28 |
